Source: patent US20090130239A1, “METHOD FOR PREVENTING OR TREATING EDEMA OR DERMATITIS USING GLEHNIA LITTORALIS FR. SCHMIDT ET MIQUEL EXTRACT” (Korea Institute of Oriental Medicine, priority 2007, published 2009)

Test system: TPA induced immune cell infiltration and epidermal hyperproliferation
Test: Histopathological analysis of ear tissues (H&E), TPA induced acute dermatitis
Format: in vivo, mouse
Details: ear tissue, 6 hours after TPA, extract 400 mg/kg, indomethacin 10 mg/kg, compared with TPA treated group
Experimental: C57BL/6J male mouse at 5 weeks (DAE HAN BIOLINK CO., LTD.), the most widely used inflammation animal model, was adapted to the experimental environment for 1 week. Total 40 mice were group into 4 (10 mice per each group). TPA (12-O-Tetrade-canoylphobol 13-acetate) was locally applied (2.5 ug/20 ul acetone) to the right ears of 6 week old mice to induce edema and dermatitis. The left ears of the mice were used as the negative control, to which an excipient (20 ul of acetone) was treated. The experimental group was treated with Glehnia littoralis Fr. Schmidt et Miquel extract (400 mg/kg) by intraperitoneal injection one hour before TPA treatment. The positive control group was administered with indomethacin (10 mg/kg) one hour before TPA treatment and the negative control was administered with saline by the same manner.
Inflammation was induced for 6 hours by the same manner as described in Experimental Example <1-1> and then the animal was sacrificed. […] In the […], edema and inflammation accompanying symptoms of migration and infiltration of polymorphonuclear leukocytes were induced. In the meantime, in the experimental group (C) administered with Glehnia littoralis Fr. […]

For `COc1ccc2c(c1)c(CC(=O)O)c(C)n2C(=O)c1ccc(Cl)cc1` [indomethacin], the “infiltration of immune cells and epidermal hyperproliferation” value was “inhibition”.
